# Measurements from patent publication US20250320184A1 (SIRONAX LTD., priority 2022, published 2025).
# Molecular target: T1, SARM1 (50-724) (Homo sapiens, UniProt Q6SZW1)
# T1 sequence (Q6SZW1 50-724): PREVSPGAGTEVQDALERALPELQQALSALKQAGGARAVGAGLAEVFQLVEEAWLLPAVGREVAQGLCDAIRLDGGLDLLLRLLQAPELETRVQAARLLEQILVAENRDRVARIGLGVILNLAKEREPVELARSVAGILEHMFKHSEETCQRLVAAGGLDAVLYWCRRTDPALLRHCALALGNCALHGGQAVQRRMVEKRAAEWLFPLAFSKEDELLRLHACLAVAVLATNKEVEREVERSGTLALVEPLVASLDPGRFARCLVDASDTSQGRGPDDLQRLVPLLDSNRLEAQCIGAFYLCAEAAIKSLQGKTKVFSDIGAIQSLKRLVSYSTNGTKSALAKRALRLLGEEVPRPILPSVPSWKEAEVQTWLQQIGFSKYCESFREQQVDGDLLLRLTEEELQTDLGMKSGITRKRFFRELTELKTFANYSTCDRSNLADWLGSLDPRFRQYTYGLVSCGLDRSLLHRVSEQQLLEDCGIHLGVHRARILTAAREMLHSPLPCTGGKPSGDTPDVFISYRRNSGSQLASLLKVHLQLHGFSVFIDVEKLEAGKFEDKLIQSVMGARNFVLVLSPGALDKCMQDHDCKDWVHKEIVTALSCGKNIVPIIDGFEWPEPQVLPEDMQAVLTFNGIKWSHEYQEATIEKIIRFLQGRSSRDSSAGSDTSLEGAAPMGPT
# Experiment: biochemical
# Description: An enzymatic assay was performed in a 384-well plate using Dulbecco's phosphate-buffered saline (PBS) as the reaction buffer. […] The reaction was initiated by adding a mixture of 200 μM nicotinamide mononucleotide (NMN) as activator and 100 μM NAD^+ as substrate. After 1 h of incubation at room temperature, the reaction was terminated with 10 times volume of 70% acetonitrile, then centrifuged at 3800 rpm for 10 min.
row,IC50 [µM],Structure (SMILES)
1,< 0.1,"Cc1c2c(F)cc(NC(C)c3nc(Cl)c(Cl)s3)cc2nn1CC(N)=O (single isomer, unassigned) [Compound 391]"
2,< 0.1,"CC(Nc1ccc2c(c1)NC(=O)C2(C)C)c1nccc(Cl)c1Cl (racemic) [Example 210, 6-((1-(3,4-dichloropyridin-2-yl)ethyl)amino)-3,3-dimethylindolin-2-one]"
3,< 0.1,"CC1(C)C(=O)Nc2cc(NC(CCO)c3nc(Cl)c(Cl)s3)ccc21 (racemic) [Example 292, 6-((1-(4,5-dichlorothiazol-2-yl)-3-hydroxypropyl)amino)-3,3-dimethylindolin-2-one]"
4,0.5 to 1,"CC(Nc1ccc2cccnc2c1)c1cccc(Cl)c1Cl (racemic) [Example 129, N-(1-(2,3-dichlorophenyl)ethyl)quinolin-7-amine]"
5,< 0.1,"Cc1c2ccc(NC(C)c3nc(Cl)c(Cl)s3)cc2nn1C1CCOCC1 (racemic) [Compound 327, N-(1-(4,5-dichlorothiazol-2-yl)ethyl)-3-methyl-2-(tetrahydro-2H-pyran-4-yl)-2H-indazol-6-amine]"
6,> 1,"CC(Nc1ccc2nc[nH]c(=O)c2n1)c1ccc(F)c(Cl)c1Cl (single isomer, unassigned) [Compound 385]"
7,> 1,"CC1CCCN(S(=O)(=O)Nc2ccc3c(c2)C(=O)NCC3)C1 (racemic) [Example 169, 3-methyl-N-(1-oxo-1,2,3,4-tetrahydroisoquinolin-7-yl)piperidine-1-sulfonamide]"
8,< 0.1,"Cc1nc(C(C)Nc2ccc3cc[nH]c(=O)c3c2)sc1C (racemic) [Example 213, 7-((1-(4,5-dimethylthiazol-2-yl)ethyl)amino)isoquinolin-1(2H)-one]"
9,> 1,"CCC1CCCCN1S(=O)(=O)Nc1ccc2c(c1)C(=O)NCC2 (racemic) [Compound 48, 2-ethyl-N-(1-oxo-1,2,3,4-tetrahydroisoquinolin-7-yl)piperidine-1-sulfonamide]"
10,< 0.1,"Cc1n[nH]c(=O)c2cc(NC(C)c3cncc(Cl)c3Cl)ccc12 (racemic) [Compound 275, 7-((1-(4,5-dichloropyridin-3-yl)ethyl)amino)-4-methylphthalazin-1(2H)-one]"
11,< 0.1,"CC(Nc1cc(F)c2ncn(-c3ncnn3C)c(=O)c2c1)c1nc(Cl)c(Cl)s1 (racemic) [Example 373, 6-((1-(4,5-dichlorothiazol-2-yl)ethyl)amino)-8-fluoro-3-(1-methyl-1H-1,2,4-triazol-5-yl)quinazolin-4(3H)-one]"
12,< 0.1,"CC1(C)C(=O)N(CCO)c2cc(NS(=O)(=O)c3cccc(Cl)c3Cl)ccc21 [Compound 240, 2,3-dichloro-N-(1-(2-hydroxyethyl)-3,3-dimethyl-2-oxoindolin-6-yl)benzenesulfonamide]"
13,0.5 to 1,"Cc1c(F)cccc1S(=O)(=O)Nc1cccc(-c2cscn2)c1 [Example 159, 3-fluoro-2-methyl-N-(3-(thiazol-4-yl)phenyl)benzenesulfonamide]"
14,< 0.1,"O=S(=O)(Nc1ccc2c(C3CC3)n[nH]c2c1)c1cccc(Cl)c1Cl [Compound 88, 2,3-dichloro-N-(3-cyclopropyl-1H-indazol-6-yl)benzenesulfonamide]"
15,0.1 to 0.5,"O=S(=O)(Nc1cccc(-c2ncco2)c1)c1cccc(Cl)c1Cl [Compound 64, 2,3-dichloro-N-(3-oxazol-2-ylphenyl)benzenesulfonamide]"
16,> 1,"O=C1NCCc2ccc(NS(=O)(=O)c3cccc(F)c3F)cc21 [Compound 54, 2,3-difluoro-N-(1-oxo-1,2,3,4-tetrahydroisoquinolin-7-yl)benzenesulfonamide]"
17,< 0.1,"O=C1CCCc2ccc(NS(=O)(=O)c3cccc(Cl)c3Cl)cc2N1 [Compound 84, 2,3-dichloro-N-(2-oxo-2,3,4,5-tetrahydro-1H-benzo[b]azepin-8-yl)benzenesulfonamide]"
18,> 1,"Cc1cccc(F)c1S(=O)(=O)Nc1ccc2c(c1)C(=O)NCC2 [Compound 61, 2-fluoro-6-methyl-N-(1-oxo-1,2,3,4-tetrahydroisoquinolin-7-yl)benzenesulfonamide]"
